According to patent US20120058499A1, “Bioluminescent Detection of Protease Activity” (priority 2010, published 2012):

What was measured:
[1] = test system: Otub2, JosD1, JosD2, AMSH, Ataxin3, Ataxin3-like, UCHL5, USP20, and USP14; assay: Substrate comparison on panel of nine isopeptidases; type: biochemical; conditions: seven of nine DUBs (exceptions JosD2 and UCHL5)
Experimental: (§1) For Ub-AMC and Ub-Rhodamine110, all enzymes were diluted into 50 mM Tris, pH 8.0, 5 mM DTT, 0.05% CHAPS to a final concentration of 10 nM. […] Either Ub-AMC or Ub-Rhodamine110 (final reaction concentration equal to 250 nM) were diluted into 50 mM Tris, pH 8.0, 5 mM DTT, 0.05% (w/v) CHAPS. […] For Ub-Rhodamine110, fluorescence was monitored with filters corresponding to excitation at 485 nm and emission at 531 nm.

[2] = molecular target: T1, UCHL5 (Homo sapiens, UniProt Q9Y5K5); assay: Platform comparison of DUB substrates, signal to background; type: biochemical; conditions: DUB 10 nM; signal at 30 minutes; Ub-LUC 100 nM, DUB-Glo substrate 20 μM, Ub-AMC/Ub-rho 250 nM
T1 sequence (Q9Y5K5 1-329): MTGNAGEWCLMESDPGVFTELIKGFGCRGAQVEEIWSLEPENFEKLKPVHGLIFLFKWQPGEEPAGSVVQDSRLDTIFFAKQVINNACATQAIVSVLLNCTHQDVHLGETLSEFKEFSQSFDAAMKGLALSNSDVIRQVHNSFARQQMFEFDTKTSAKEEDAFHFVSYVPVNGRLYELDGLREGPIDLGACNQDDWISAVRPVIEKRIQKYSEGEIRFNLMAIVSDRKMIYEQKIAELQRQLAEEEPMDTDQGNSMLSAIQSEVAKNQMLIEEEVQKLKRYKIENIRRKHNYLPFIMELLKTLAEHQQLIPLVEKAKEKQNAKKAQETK
Experimental: as §1

[3] = molecular target: JosD1 (Homo sapiens, UniProt Q15040); assay: as above; type: biochemical; conditions: DUB 10 nM; signal at 30 minutes; Ub-LUC 100 nM, DUB-Glo substrate 20 μM, Ub-AMC/Ub-rho 250 nM
Experimental: as §1

[4] = molecular target: T2, JosD2 (Homo sapiens, UniProt Q8TAC2); assay: as above; type: biochemical; conditions: DUB 10 nM; signal at 30 minutes; Ub-LUC 100 nM, DUB-Glo substrate 20 μM, Ub-AMC/Ub-rho 250 nM
T2 sequence (Q8TAC2 1-188): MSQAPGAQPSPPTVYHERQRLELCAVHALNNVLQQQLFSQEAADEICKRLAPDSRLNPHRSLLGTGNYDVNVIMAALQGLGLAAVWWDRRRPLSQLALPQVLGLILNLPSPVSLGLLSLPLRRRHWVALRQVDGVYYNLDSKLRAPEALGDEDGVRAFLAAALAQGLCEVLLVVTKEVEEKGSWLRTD
Experimental: as §1

[5] = molecular target: Ataxin3 (Homo sapiens, UniProt P54252); assay: as above; type: biochemical; conditions: DUB 10 nM; signal at 30 minutes; Ub-LUC 100 nM, DUB-Glo substrate 20 μM, Ub-AMC/Ub-rho 250 nM
Sequence of Ataxin3 (P54252 whole entry, species assumed): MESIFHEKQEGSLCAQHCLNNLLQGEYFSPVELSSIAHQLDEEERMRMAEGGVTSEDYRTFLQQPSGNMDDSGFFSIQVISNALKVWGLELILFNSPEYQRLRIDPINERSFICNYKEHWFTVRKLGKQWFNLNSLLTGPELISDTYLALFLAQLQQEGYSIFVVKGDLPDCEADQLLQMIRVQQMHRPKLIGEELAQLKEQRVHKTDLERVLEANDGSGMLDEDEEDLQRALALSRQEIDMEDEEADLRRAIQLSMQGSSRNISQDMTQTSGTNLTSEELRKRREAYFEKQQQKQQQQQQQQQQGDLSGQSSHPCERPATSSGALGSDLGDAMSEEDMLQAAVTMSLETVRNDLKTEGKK
Experimental: as §1

[6] = molecular target: T3, Otub2 (Homo sapiens, UniProt Q96DC9); assay: as above; type: biochemical; conditions: DUB 10 nM; signal at 30 minutes; Ub-LUC 100 nM, DUB-Glo substrate 20 μM, Ub-AMC/Ub-rho 250 nM
T3 sequence (Q96DC9 1-234): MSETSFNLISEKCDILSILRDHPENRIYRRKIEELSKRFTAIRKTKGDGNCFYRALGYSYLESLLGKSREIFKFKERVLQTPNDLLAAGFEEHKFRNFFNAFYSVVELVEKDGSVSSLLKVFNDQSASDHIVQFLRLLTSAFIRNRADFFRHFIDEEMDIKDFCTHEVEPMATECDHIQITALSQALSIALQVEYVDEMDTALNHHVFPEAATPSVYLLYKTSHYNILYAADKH
Experimental: as §1

[7] = molecular target: T4, AMSH (Homo sapiens, UniProt O95630); assay: as above; type: biochemical; conditions: DUB 10 nM; signal at 30 minutes; Ub-LUC 100 nM, DUB-Glo substrate 20 μM, Ub-AMC/Ub-rho 250 nM
T4 sequence (O95630 1-424): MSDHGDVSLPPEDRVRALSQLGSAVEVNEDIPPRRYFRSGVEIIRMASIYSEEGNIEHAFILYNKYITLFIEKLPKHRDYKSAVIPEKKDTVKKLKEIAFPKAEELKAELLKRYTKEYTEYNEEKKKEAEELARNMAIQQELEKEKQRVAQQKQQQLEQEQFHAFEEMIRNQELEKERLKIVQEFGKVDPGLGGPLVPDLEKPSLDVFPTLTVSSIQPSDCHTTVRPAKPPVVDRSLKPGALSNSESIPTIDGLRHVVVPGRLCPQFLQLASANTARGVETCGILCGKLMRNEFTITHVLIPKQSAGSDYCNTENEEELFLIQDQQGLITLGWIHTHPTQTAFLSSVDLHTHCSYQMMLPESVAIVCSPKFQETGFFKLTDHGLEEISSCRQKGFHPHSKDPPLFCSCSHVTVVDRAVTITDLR
Experimental: as §1

[8] = molecular target: T5, Ataxin3-like (Homo sapiens, UniProt Q9H3M9); assay: as above; type: biochemical; conditions: DUB 10 nM; signal at 30 minutes; Ub-LUC 100 nM, DUB-Glo substrate 20 μM, Ub-AMC/Ub-rho 250 nM
T5 sequence (Q9H3M9 1-355): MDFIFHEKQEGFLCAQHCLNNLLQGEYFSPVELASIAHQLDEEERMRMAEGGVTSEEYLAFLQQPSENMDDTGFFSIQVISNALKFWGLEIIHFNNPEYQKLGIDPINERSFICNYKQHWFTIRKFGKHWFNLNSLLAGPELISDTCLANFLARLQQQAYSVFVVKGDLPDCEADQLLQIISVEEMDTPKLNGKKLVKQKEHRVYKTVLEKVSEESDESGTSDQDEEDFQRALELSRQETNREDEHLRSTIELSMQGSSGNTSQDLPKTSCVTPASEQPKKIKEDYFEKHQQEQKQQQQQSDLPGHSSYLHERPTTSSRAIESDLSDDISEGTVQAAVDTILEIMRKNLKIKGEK
Experimental: as §1

[9] = molecular target: USP14 (Homo sapiens, UniProt P54578); assay: as above; type: biochemical; conditions: DUB 10 nM; signal at 30 minutes; Ub-LUC 100 nM, DUB-Glo substrate 20 μM, Ub-AMC/Ub-rho 250 nM
Sequence of USP14 (P54578 whole entry, species assumed): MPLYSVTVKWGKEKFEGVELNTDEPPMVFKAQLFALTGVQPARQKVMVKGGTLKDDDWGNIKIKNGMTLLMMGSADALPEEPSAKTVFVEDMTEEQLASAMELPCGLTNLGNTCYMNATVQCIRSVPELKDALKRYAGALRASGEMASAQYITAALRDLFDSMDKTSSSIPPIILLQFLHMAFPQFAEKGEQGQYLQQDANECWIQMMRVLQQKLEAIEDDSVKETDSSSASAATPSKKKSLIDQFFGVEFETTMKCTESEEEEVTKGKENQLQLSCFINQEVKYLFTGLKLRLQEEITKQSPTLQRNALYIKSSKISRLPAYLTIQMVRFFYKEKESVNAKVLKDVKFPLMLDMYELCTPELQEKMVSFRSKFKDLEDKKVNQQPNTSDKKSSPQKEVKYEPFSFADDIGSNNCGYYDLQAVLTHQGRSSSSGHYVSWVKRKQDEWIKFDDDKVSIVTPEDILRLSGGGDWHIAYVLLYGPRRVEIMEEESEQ
Experimental: as §1

[10] = molecular target: T6, isopeptidase T (Homo sapiens, UniProt P45974); conditions: Dang et al., 1998; cited from earlier work
T6 sequence (P45974 1-858): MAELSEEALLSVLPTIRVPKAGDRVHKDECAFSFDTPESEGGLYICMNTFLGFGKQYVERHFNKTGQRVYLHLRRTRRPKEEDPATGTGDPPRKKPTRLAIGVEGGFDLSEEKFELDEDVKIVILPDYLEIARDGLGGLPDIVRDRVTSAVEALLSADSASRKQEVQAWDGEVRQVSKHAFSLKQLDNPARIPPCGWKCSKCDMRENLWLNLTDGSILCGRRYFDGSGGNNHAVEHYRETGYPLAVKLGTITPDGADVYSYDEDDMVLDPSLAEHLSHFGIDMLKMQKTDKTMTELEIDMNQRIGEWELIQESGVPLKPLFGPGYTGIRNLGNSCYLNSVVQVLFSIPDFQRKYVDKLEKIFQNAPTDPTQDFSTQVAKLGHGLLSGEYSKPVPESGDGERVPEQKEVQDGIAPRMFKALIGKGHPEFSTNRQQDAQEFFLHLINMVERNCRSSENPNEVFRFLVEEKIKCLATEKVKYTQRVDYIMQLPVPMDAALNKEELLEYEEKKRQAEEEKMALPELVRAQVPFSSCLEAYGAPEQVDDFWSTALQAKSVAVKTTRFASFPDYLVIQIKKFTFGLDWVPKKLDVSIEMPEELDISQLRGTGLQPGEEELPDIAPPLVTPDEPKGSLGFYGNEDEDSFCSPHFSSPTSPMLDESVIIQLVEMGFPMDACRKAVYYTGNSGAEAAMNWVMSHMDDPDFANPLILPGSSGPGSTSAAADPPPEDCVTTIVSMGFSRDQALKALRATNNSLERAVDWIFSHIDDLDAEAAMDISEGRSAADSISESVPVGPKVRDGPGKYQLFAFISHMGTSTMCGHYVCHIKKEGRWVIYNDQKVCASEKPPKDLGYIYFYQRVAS

Signal to Background value [2] | Signal to Background value [3] | Signal to Background value [4] | Signal to Background value [6] | Signal to Background value [7] | Signal to Background value [9] | Substance | detectable activity (S/B>3) ([1]; listed as Ub-Rhodamine110) | detectable activity (S/B>3) ([1]; listed as Ub-rhodamine110) | Signal to Background value [5] | Signal to Background value [8] | detectable activity (S/B>3) [1] | relative catalytic efficiency (kcat/Km), fold higher than AMC derivative of Z-Leu-Arg-Gly-Gly peptide [10] [fold]
103 | 1.5 | 8.2 | 1.7 | 1.2 |  | ubiquitin-rhodamine110 [Ub-rho] | no detectable activity | little to no detectable activity | 1.3 | 1.6 |  | 
8.1 | 1.1 | 2.1 | 1.2 | 1.0 | 1.0 | ubiquitin-7-amino-4-methylcoumarin [Ub-AMC] |  |  | 0.9 | 1.1 | little to no detectable activity | ~8000
